Patent publication US8092020B2 (priority 2002, dated 2012)

Tests used:
Sprague-Dawley rat [1] = conditions: in vivo
Hemoglobin (Hgb) = Hemoglobin (Hgb) (Homo sapiens, UniProt P68871+P69905); conditions: cited from earlier work
Sprague-Dawley rat [2] = conditions: in vivo, ip
Sprague-Dawley rat [3] = conditions: in vivo, ip; remark: listed apart in the source

Hemoglobin (Hgb), sequence (P68871 2-147): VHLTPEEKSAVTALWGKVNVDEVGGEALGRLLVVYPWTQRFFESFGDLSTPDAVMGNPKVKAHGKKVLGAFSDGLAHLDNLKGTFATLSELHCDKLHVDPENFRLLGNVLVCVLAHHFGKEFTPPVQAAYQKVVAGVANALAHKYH
Hemoglobin (Hgb), sequence (P69905 2-142): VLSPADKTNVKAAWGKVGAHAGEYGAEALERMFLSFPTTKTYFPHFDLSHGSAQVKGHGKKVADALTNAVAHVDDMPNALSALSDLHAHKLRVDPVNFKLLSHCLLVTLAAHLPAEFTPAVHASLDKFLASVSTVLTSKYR

Row | Compound | concentration causing significant changes in both arterial and venous coloration (Sprague-Dawley rat [1]) [ppm] | extrapolated EC50 for fundal artery coloration changes (Sprague-Dawley rat [1]) [ppm] | lowest level with statistically significant arterial coloration changes (p<0.05) (Sprague-Dawley rat [1]) [ppm] | maximal observed change in arterial coloration in all animals (Sprague-Dawley rat [1]) [%] | near maximal change in arterial coloration in animals which did not expire (Sprague-Dawley rat [1]) [%] | affinity of Hgb for CO relative to that for oxygen (Hemoglobin (Hgb)) | lowest dose with statistically significant decreases in the pupillary light reflex (p<0.05) (Sprague-Dawley rat [2]) [µg/kg] | time to animal expiration post-injection (Sprague-Dawley rat [3])
1 | [C-]#[O+] [CO, Carbon monoxide] | ≥ 500 | 289±37 | 250 | 38.5 | 92.3 | 200-250 times greater |  | 
2 | botulinum toxin |  |  |  |  |  |  | 1e-05 | at least 14 hours
